Counter-ions that a name gives are not always drawn.
tested on: Acinetobacter baumannii ATCC 17961; assay: Antimicrobial susceptibility testing: 90% growth inhibitory concentration (IC90) determination; format: cell-based; settings: ATCC17961, Acinetobacter baumannii ATCC 17961, Iso-Sensitest broth, read-out: ATCC 17961 IC90
Method in brief: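 Broth microdilution in Iso-Sensitest medium, twofold series (e.g. 50 to 0.097 μM final), ~5×10^5 CFU/ml inoculum, 35±2 °C. OD600 read every 20 min over 16 h. IC90 derived from growth inhibition during logarithmic phase.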

Point of comparison: `Cc1cc(NC(=O)c2ncc(-c3c[nH]nc3C(F)(F)F)n2C)ccc1C(=O)NCCCCCCN` [Example 49, N-(4-((6-aminohexyl)carbamoyl)-3-methylphenyl)-1-methyl-5-(3-(trifluoromethyl)-1H-pyrazol-4-yl)-1H-imidazole-2-carboxamide hydrochloride], IC90 2830 nM. Against it:
- Cn1c(-c2cn(C3CC3(F)F)nc2C(F)(F)F)cnc1C(=O)Nc1ccc(C(=O)NC2CCN(C(=O)N[C@@H]3CNC[C@H]3O)CC2)c(Cl)c1 (relative stereo) [Example 337, 4-(2-chloro-4-(5-(1-(2,2-difluorocyclopropyl)-3-(trifluoromethyl)-1H-pyrazol-4-yl)-1-methyl-1H-imidazole-2-carboxamido)benzamido)-N-(trans-4-hydroxypyrrolidin-3-yl)piperidine-1-carboxamide] — 6.6-fold lower, 426 nM
- Cn1c(-c2cn(CC#N)nc2C(F)(F)F)cnc1C(=O)Nc1ccc(C(=O)N[C@H]2C[C@@H](NC(=O)[C@H]3C[C@H](N)C3)C2)c(Cl)c1 [Example 269, N-[4-[[3-[(3-aminocyclobutanecarbonyl)ami-no]cyclobutyl]carbamoyl]-3-chloro-phenyl]-5-[1-(cyanomethyl)-3-(trifluoromethyl)pyrazol-4-yl]-1-methyl-imidazole-2-carboxamide; formic acid] — 8.5-fold lower, 333 nM
- Cn1c(-c2cn(C3CC3)nc2C(F)(F)F)cnc1C(=O)Nc1ccc(C(=O)N2CCN(C(=O)C[C@H]3CCNC3)CC2)c(Cl)c1 [Example 246, (R)-N-(3-chloro-4-(4-(2-(pyrrolidin-3-yl)acetyl)piperazine-1-carbonyl)phenyl)-5-(1-cyclopropyl-3-(trifluoromethyl)-1H-pyrazol-4-yl)-1-methyl-1H-imidazole-2-carboxamide hydrochloride] — 9.7-fold lower, 293 nM
- Cn1c(-c2cn(C3CC3(F)F)nc2C(F)(F)F)cnc1C(=O)Nc1ccc(C(=O)NC2C[C@@H]3CC[C@@H](C2)N3)c(Cl)c1 (mixture of isomers) [Example 283, rac-N-(4-(((1R,3s,5S)-8-azabicyclo[3.2.1]octan-3-yl)carbamoyl)-3-chlorophenyl)-5-(1-(2,2-difluorocyclopropyl)-3-(trifluoromethyl)-1H-pyrazol-4-yl)-1-methyl-1H-imidazole-2-carboxamide formate] — 8.1-fold lower, 348 nM
- Cn1c(-c2cn(C3CC3(F)F)nc2C(F)(F)F)cnc1C(=O)Nc1ccc(C(=O)N2C[C@H]3CNC[C@H]3C2)c(Cl)c1 (mixture of isomers) [Example 271, rac-N-(3-chloro-4-((3aR,6aS)-octahydropyrrolo[3,4-c]pyrrole-2-carbonyl)phenyl)-5-(1-(2,2-difluorocyclopropyl)-3-(trifluoromethyl)-1H-pyrazol-4-yl)-1-methyl-1H-imidazole-2-carboxamide formate] — 8.4-fold lower, 335 nM
- Cn1cc(-c2cnc(C(=O)Nc3ccc(C(=O)N4CCN(C(=O)C5CCNCC5)CC4)c(Cl)c3)n2C)c(C(F)(F)F)n1 [Example 115, N-[3-chloro-4-[4-(piperidine-4-carbonyl)piperazine-1-carbonyl]phenyl]-1-methyl-5-[1-methyl-3-(trifluoromethyl)pyrazol-4-yl]imidazole-2-carboxamide;hydrochloride] — 2.3-fold lower, 1250 nM
- Cn1c(-c2cn(C3CC3(F)F)nc2C(F)(F)F)cnc1C(=O)Nc1ccc(C(=O)NC2CC3(CC(N)C3)C2)c(Cl)c1 (centres unmarked) [Example 193, N-(4-((6-aminospiro[3.3]heptan-2-yl)carbamoyl)-3-chlorophenyl)-5-(1-(2,2-difluorocyclopropyl)-3-(trifluoromethyl)-1H-pyrazol-4-yl)-1-methyl-1H-imidazole-2-carboxamide formate] — 15-fold lower, 188 nM
- Cn1c(-c2cn(CC(F)(F)F)nc2C(F)(F)F)cnc1C(=O)Nc1ccc(C(=O)N2CCN(C3=NC(CN)CO3)CC2)c(Cl)c1 (centres unmarked) [Example 148, N-[4-[4-[4-(aminomethyl)-4,5-dihydro-1,3-oxazol-2-yl]piperazine-1-carbonyl]-3-chlorophenyl]-1-methyl-5-[1-(2,2,2-trifluoroethyl)-3-(trifluoromethyl)pyrazol-4-yl]imidazole-2-carboxamide] — 5.4-fold lower, 524 nM
- Cn1c(-c2cn(CCC#N)nc2C(F)(F)F)cnc1C(=O)Nc1ccc(C(=O)N2CCN(C(=O)C3CCNCC3)CC2)c(Cl)c1 [Example 5, N-(3-chloro-4-(4-(piperidine-4-carbonyl)piperazine-1-carbonyl)phenyl)-5-(1-(2-cyanoethyl)-3-(trifluoromethyl)-1H-pyrazol-4-yl)-1-methyl-1H-imidazole-2-carboxamide] — 2.7-fold lower, 1040 nM
- C=C(F)Cn1cc(-c2cnc(C(=O)Nc3ccc(C(=O)NCCCCCN)c(Cl)c3)n2C)c(C(F)(F)F)n1 [Example 185, N-(4-((5-aminopentyl)carbamoyl)-3-chlorophenyl)-5-(1-(2-fluoroallyl)-3-(trifluoromethyl)-1H-pyrazol-4-yl)-1-methyl-1H-imidazole-2-carboxamide hydrochloride] — 19-fold lower, 148 nM
- Cn1c(-c2cn(CC#N)nc2C(F)(F)F)cnc1C(=O)Nc1ccc(C(=O)N2CCN(C(=O)NC3CNC3)CC2)c(Cl)c1 [Example 151] — 6-fold lower, 475 nM
- CNC(=O)Cn1cc(-c2cnc(C(=O)Nc3ccc(C(=O)N4CCN(C(=O)C5CCNCC5)CC4)c(Cl)c3)n2C)c(C(F)(F)F)n1 [Example 28, N-(3-chloro-4-(4-(piperidine-4-carbonyl)piperazine-l-carbonyl)phenyl)-1-methyl-5-(1-(2-(methylamino)-2-oxoethyl)-3-(trifluoromethyl)-1H-pyrazol-4-yl)-1H-imidazole-2-carboxamide formate] — 1.9-fold lower, 1490 nM
- Cn1c(-c2c[nH]nc2C(F)(F)F)cnc1C(=O)Nc1ccc(S(=O)(=O)N2CCN(C(=O)[C@@H]3C[C@@H](O)CN3)CC2)c(Cl)c1 [Example 59, N-(3-Chloro-4-((4-((2S,4R)-4-hydroxypyrrolidine-2-carbonyl)piperazin-1-yl)sulfonyl)phenyl)-1-methyl-5-(3-(trifluoromethyl)-1H-pyrazol-4-yl)-1H-imidazole-2-carboxamide Hydrochloride] — 3.4-fold lower, 823 nM
- Cc1cc(NC(=O)c2ncc(-c3cn(CC#N)nc3C(F)(F)F)n2C)cc(F)c1C(=O)N1CCN(C(=O)C2(O)CCCNC2)CC1 (centres unmarked) [Example 120, 5-[1-(cyanomethyl)-3-(trifluoromethyl)pyrazol-4-yl]-N-[3-fluoro-4-[4-(3-hydroxypiperidine-3-carbonyl)piperazine-1-carbonyl]-5-methylphenyl]-1-methylimidazole-2-carboxamide] — within 1.5-fold, 2250 nM
- Cn1c(-c2cn(C3CC3)nc2C(F)(F)F)cnc1C(=O)Nc1ccc(C(=O)N2CCN(C(=O)[C@]3(C)CCCN3)CC2)c(Cl)c1 [Example 258, (S)-N-(3-chloro-4-(4-(2-methylpyrrolidine-2-carbonyl)piperazine-1-carbonyl)phenyl)-5-(1-cyclopropyl-3-(trifluoromethyl)-1H-pyrazol-4-yl)-1-methyl-1H-imidazole-2-carboxamide hydrochloride] — 9-fold lower, 314 nM
- CCc1cc(NC(=O)c2ncc(-c3cn(CC#N)nc3C(F)(F)F)n2C)ccc1C(=O)N1CCN(C(=O)[C@@H]2CCNC2)CC1 [Example 130, 5-[1-(cyanomethyl)-3-(trifluoromethyl)pyrazol-4-yl] N-[3-ethyl-4-[4-[(3R)-pyrrolidine-3-carbonyl]piperazine-1-carbonyl]phenyl]-1-methylimidazole-2-carboxamide;formic acid] — 3-fold lower, 947 nM
- Cn1c(-c2cn(CCCl)nc2C(F)(F)F)cnc1C(=O)Nc1ccc(C(=O)N2CCN(C(=O)NC3CNC3)CC2)c(Cl)c1 [Example 251, N-(azetidin-3-yl)-4-[2-chloro-4-[[5-[1-(2-chloroethyl)-3-(trifluoromethyl)pyrazol-4-yl]-1-methyl-imidazole-2-carbonyl]amino]benzoyl]pipera-zine-1-carboxamide] — 9.2-fold lower, 306 nM
- CCn1cc(-c2cnc(C(=O)Nc3ccc(C(=O)N4CCN(C(=O)C5CCNCC5)CC4)c(Cl)c3)n2C)c(C(F)(F)F)n1 [Example 114, N-[3-chloro-4-[4-(piperidine-4-carbonyl)piperazine-1-carbonyl]phenyl]-5-[1-ethyl-3-(trifluoromethyl)pyrazol-4-yl]-1-methylimidazole-2-carboxamide;hydrochloride] — 8.3-fold lower, 339 nM
- CN1CCN(C(=O)N2CCN(C(=O)c3ccc(NC(=O)c4ncc(-c5cn(C6CC6)nc5C(F)(F)F)n4C)cc3Cl)CC2)CC1 [Example 297, N-(3-chloro-4-(4-(4-methylpiperazine-1-carbonyl)piperazine-1-carbonyl)phenyl)-5-(1-cyclopropyl-3-(trifluoromethyl)-1H-pyrazol-4-yl)-1-methyl-1H-imidazole-2-carboxamide] — 7.8-fold lower, 365 nM
- Cc1cc(NC(=O)c2ncc(-c3cn(CC#N)nc3C(F)(F)F)n2C)cc(F)c1C(=O)N1CCN(C(=O)[C@H]2CC[C@@H](N)C2)CC1 [Example 119, N-[4-[4-[(1S,3R)-3-aminocyclopentanecarbonyl]piperazine-1-carbonyl]-3-fluoro-5-methylphenyl]-5-[1-(cyanomethyl)-3-(trifluoromethyl)pyrazol-4-yl]-1-methylimidazole-2-carboxamide] — 3.7-fold lower, 769 nM
- C#CCn1cc(-c2cnc(C(=O)Nc3ccc(C(=O)NCCOCC(C)(C)N)c(Cl)c3)n2C)c(C(F)(F)F)n1 [Example 46, N-(4-((2-(2-amino-2-methylpropoxy)ethyl)carbamoyl)-3-chlorophenyl)-1-methyl-5-(1-(prop-2-yn-1-yl)-3-(trifluoromethyl)-1H-pyrazol-4-yl)-1H-imidazole-2-carboxamide 2,2,2-trifluoroacetate] — 11-fold lower, 263 nM
- Cn1c(-c2cn(C3CC3(F)F)nc2C(F)(F)F)cnc1C(=O)Nc1ccc(C(=O)NC2CCN(C(=O)N[C@H]3C[C@@H](N)C3)CC2)c(Cl)c1 (mixture of isomers) [Example 237, rac-N-((1s,3s)-3-aminocyclobutyl)-4-(2-chloro-4-(5-(1-(2,2-difluorocyclopropyl)-3-(trifluoromethyl)-1H-pyrazol-4-yl)-1-methyl-1H-imidazole-2-carboxamido)benzamido)piperi-dine-1-carboxamide formate] — 10-fold lower, 271 nM

From patent publication US11390604B2 (Hoffmann-La Roche Inc., priority 2019, dated 2022)
